Measured values reported in publication PMC6010119 (Journal of Enzyme Inhibition and Medicinal Chemistry, 2017).

What was measured:
[1] = system: A549 lung cancer cells; experiment: cells; conditions: Homo sapiens, A549, read-out: IC50 on A549
[2] = biological target: EGFR (Homo sapiens, UniProt P00533); type: biochemical; conditions: test concentration not given; conclusion says EGFR in A549 cancer cells
EGFR, sequence (P00533 25-1210): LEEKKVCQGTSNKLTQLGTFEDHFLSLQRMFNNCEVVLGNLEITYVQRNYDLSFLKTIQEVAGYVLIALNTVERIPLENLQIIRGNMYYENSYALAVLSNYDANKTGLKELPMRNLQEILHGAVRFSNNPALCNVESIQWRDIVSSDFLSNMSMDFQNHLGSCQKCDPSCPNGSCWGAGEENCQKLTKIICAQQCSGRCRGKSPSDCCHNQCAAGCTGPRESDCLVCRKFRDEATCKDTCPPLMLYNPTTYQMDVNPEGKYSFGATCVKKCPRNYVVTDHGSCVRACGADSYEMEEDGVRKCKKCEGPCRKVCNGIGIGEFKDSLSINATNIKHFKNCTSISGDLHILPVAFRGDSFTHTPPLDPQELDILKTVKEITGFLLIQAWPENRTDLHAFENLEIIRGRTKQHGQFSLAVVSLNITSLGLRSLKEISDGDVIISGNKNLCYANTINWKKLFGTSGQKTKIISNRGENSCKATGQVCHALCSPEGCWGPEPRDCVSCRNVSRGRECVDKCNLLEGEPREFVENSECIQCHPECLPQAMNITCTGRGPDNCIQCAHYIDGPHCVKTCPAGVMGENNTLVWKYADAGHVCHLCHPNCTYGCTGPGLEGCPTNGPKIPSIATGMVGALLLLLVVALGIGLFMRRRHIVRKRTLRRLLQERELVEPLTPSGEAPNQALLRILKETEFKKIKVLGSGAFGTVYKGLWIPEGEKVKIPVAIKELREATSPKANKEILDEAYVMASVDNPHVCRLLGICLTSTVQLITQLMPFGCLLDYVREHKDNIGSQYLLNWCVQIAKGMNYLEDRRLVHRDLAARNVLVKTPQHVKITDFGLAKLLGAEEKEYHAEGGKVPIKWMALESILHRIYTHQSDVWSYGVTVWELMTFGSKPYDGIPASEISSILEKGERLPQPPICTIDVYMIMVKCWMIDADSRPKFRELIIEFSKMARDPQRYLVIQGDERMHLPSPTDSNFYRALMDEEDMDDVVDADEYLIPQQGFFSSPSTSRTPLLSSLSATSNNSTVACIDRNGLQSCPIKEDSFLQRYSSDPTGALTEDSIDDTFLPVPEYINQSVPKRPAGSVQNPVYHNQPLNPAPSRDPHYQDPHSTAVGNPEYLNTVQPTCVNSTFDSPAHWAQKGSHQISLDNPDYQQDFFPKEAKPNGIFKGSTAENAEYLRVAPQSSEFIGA

Row | SMILES | IC50 [1] [nM] | % inhibition of EGFR [2] [%]
1 | NS(=O)(=O)c1ccc(-n2c(SCC(=O)Nc3ccccc3)nc3cc4ccccc4cc3c2=O)cc1 [Compound 5, 2-(4-Oxo-3-(4-sulfamoylphenyl)-3,4-dihydrobenzo[g]quinazolin-2-ylthio)-N-phenylacetamide] | 1017 ± 10 | 55.58
2 | Cc1ccc(NC(=O)CSc2nc3cc4ccccc4cc3c(=O)n2-c2ccc(S(N)(=O)=O)cc2)cc1 [Compound 8, 2-(4-Oxo-3-(4-sulfamoylphenyl)-3,4-dihydrobenzo[g]quinazolin-2-ylthio)-N-p-tolylacetamide] | 220 ± 120 | 90.21
3 | Cc1ccccc1NC(=O)CSc1nc2cc3ccccc3cc2c(=O)n1-c1ccc(S(N)(=O)=O)cc1 [Compound 6, 2-(4-Oxo-3-(4-sulfamoylphenyl)-3,4-dihydrobenzo[g]quinazolin-2-ylthio)-N-o-tolylacetamide] | 105 ± 12 | 84.31
4 | Cc1cccc(NC(=O)CSc2nc3cc4ccccc4cc3c(=O)n2-c2ccc(S(N)(=O)=O)cc2)c1 [Compound 7, 2-(4-Oxo-3-(4-sulfamoylphenyl)-3,4-dihydrobenzo[g]quinazolin-2-ylthio)-N-m-tolylacetamide] | 1271 ± 2 | 66.85

Next, values leading:

Row | IC50 [1] [nM] | % inhibition of EGFR [2] [%] | SMILES
5 | 545 ± 3 | 58.04 | COc1cc(NC(=O)CSc2nc3cc4ccccc4cc3c(=O)n2-c2ccc(S(N)(=O)=O)cc2)cc(OC)c1OC [Compound 15, 2-(4-Oxo-3-(4-sulfamoylphenyl)-3,4-dihydrobenzo[g]quinazolin-2-ylthio)-N-(3,4,5-trimethoxyphenyl)acetamide]
6 | 727 ± 8 |  | C#Cc1cccc(Nc2ncnc3cc(OCCOC)c(OCCOC)cc23)c1 [Erlotinib, reference compound]
